From patent US20230058623A1, “NOVEL HETEROARYL-TRIAZOLE COMPOUNDS AS PESTICIDES” (Bayer Aktiengesellschaft, priority 2019, published 2023)

What was measured:
Type in all cases: in vivo
[1] = tested on: adult engorged female ticks (Rhipicephalus microplus); assay: Rhipicephalus (Boophilus) microplus injection test; settings: 168 h, application rate 4 μg/tick, egg deposition after 7 days, read-out: activity (efficacy: infertile eggs)
In short: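 Five adult engorged female ticks injected into the abdomen with 1 μL compound solution in DMSO, then held in a climate chamber. Fertile egg deposition assessed after 7 days, unclear eggs kept until hatching (about 42 days); efficacy 100% = all eggs infertile, 0% = all fertile.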

[2] = tested on: fall armyworm larvae (Spodoptera frugiperda); assay: Spodoptera frugiperda spray test; settings: 168 h, application rate 100 g/ha, after 7 days, maize leaf sections
In short: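 Maize leaf sections sprayed with compound diluted in water with 1000 ppm emulsifier, then infested with larvae once dry. Mortality (%) scored after 7 days; 100% = all caterpillars killed.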

[3] = tested on: green peach aphid (Myzus persicae); assay: Myzus persicae spray test; settings: foliar, 120 h, application rate 100 g/ha, after 5 days, Chinese cabbage leaf disks, read-out: activity (mortality)
In short: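 Chinese cabbage leaf disks infested with all aphid instars were sprayed with compound diluted in water containing emulsifier (1000 ppm). Mortality (%) was scored after 5 days, 100% meaning all aphids killed.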

[4] = tested on: adult mosquitoes Aedes aegypti strain MONHEIM; assay: Aedes aegypti test (AEDSAE surface treatment & contact assay); settings: 24 hours after contact, read-out: efficacy (mortality); for mortality at 20 mg/m2: surface concentration 20 mg/m^2, exposure 30 minutes; for mortality at 4 mg/m2: surface concentration 4 mg/m^2, exposure 30 minutes
In short: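 Compound in acetone (2 mg/ml) with 2000 ppm RME dried onto glazed tile; adults exposed to the treated surface for 30 min. Percent mortality scored 24 h after contact.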

[5] = tested on: cattle ticks (Rhipicephalus microplus) strain Parkhurst, SP-resistant; assay: Rhipicephalus (Boophilus) microplus dip test; settings: 168 h, application rate 100 ppm, egg deposition after 7 days, read-out: activity (efficacy: infertile eggs)
Protocol: Rhipicephalus (Boophilus) microplus—Dip Test
Test animal: cattle ticks (Rhipicephalus microplus) strain Parkhurst, SP-resistant
Solvent: dimethyl sulfoxide
To produce a suitable preparation of active compound, 10 mg of active compound are dissolved in 0.5 mL solvent, and the concentrate is diluted with water to the desired concentration.
This compound solution is pipetted into tubes. 8-10 engorged, adult, female cattle ticks (Rhipicephalus microplus) are placed in perforated tubes. These tubes are immersed in the aqueous compound solution until the ticks are completely moistened. After the liquid has drained off, the ticks are transferred to a filter paper in a plastic tray and stored in a climate chamber.
After 7 days egg deposition of fertile eggs is monitored. Eggs where fertility is not visible are stored in a climate chamber till hatching after about 42 days. An efficacy of 100% means all eggs are infertile; 0% means all eggs are fertile.

[6] = tested on: brown planthopper (Nilaparvata lugens); assay: Nilaparvata lugens spray test; settings: 96 h, after 4 days, rice plants; for mortality at 100 g/ha: application rate 100 g/ha; for mortality at 500 g/ha: application rate 500 g/ha
In short: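 Rice plants sprayed with compound diluted in water containing 1000 ppm emulsifier, then infested with brown planthopper. Mortality (%) scored after 4 days, 100% meaning all insects killed.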

[7] = tested on: two spotted spidermite (Tetranychus urticae); assay: Tetranychus urticae spray test OP-resistant; settings: foliar, 144 h, application rate 100 g/ha, after 6 days, French bean leaf disks
Protocol: Tetranychus urticae—Spray Test OP-Resistant
To produce a suitable preparation of active compound, 1 part by weight of active compound is mixed with the stated amount of solvents and is diluted with water, containing an emulsifier concentration of 1000 ppm, to the desired concentration. Further test concentrations are prepared by dilution with emulsifier containing water.
French bean (Phaseolus vulgaris) leaf disks infected with all instars of the two spotted spidermite (Tetranychus urticae) are sprayed with a preparation of the active ingredient of the desired concentration.
After 6 days mortality in % is determined. 100% means all spider mites have been killed and 0% means none of the spider mites have been killed.

[8] = tested on: adult mosquitoes Anopheles funestus strain FUMOZ-R; assay: Anopheles funestus test (ANPHFU surface treatment & contact assay); settings: 24 hours after contact, read-out: efficacy (mortality); for mortality at 20 mg/m2: surface concentration 20 mg/m^2, exposure 30 minutes; for mortality at 4 mg/m2: surface concentration 4 mg/m^2, exposure 30 minutes
Protocol: Anopheles funestus Test (ANPHFU Surface Treatment & Contact Assay)
(§1) Solvent: Aceton+2000 ppm rapeseed oil methyl ester (RME)
In order to produce a sufficient, active ingredient containing solution it is necessary to solve the test compound in the solvent-mix (acetone at 2 mg/ml/RME 2000 ppm). This solution is pipetted onto a glazed tile and after evaporation of the acetone, adult mosquitoes of the species Anopheles funestus strain FUMOZ-R (Hunt et al., Med. Vet. Entomol. 2005 September; 19(3): 271-275) are placed onto the dried surface. The exposure time is 30 minutes.
(§2) Mortality in percent (%) is determined 24 hours after contact of the insects to the treated surface. 100% mortality means that all tested insects are dead, whereas 0% means that no insect died.

[9] = tested on: adult mosquitoes Culex quinquefasciatus strain P00; assay: Culex quinquefasciatus test (CULXFA surface treatment & contact assay); settings: 24 hours after contact, read-out: efficacy (mortality); for mortality at 20 mg/m2: surface concentration 20 mg/m^2, exposure 30 minutes; for mortality at 4 mg/m2: surface concentration 4 mg/m^2, exposure 30 minutes
Protocol: Culex quinquefasciatus Test (CULXFA Surface Treatment & Contact Assay)
as §1
In order to produce a sufficient, active ingredient containing solution it is necessary to solve the test compound in the solvent-mix (acetone at 2 mg/ml/RME 2 000 ppm). This solution is pipetted onto a glazed tile and after evaporation of the acetone, adult mosquitoes of the species Culex quinquefasciatus strain P00 are placed onto the dried surface. The exposure time is 30 minutes.
as §2

Row | Structure (SMILES) | pest or weed control at 0.004 mg [1] [%] | mortality at 100 g/ha [2] [%] | mortality at 100 g/ha [3] [%] | mortality at 20 mg/m2 [4] [%] | pest or weed control at 100 ppm [5] [%] | mortality at 100 g/ha [6] [%] | mortality at 4 mg/m2 [4] [%] | mortality at 100 g/ha [7] [%] | mortality at 20 mg/m2 [8] [%] | mortality at 4 mg/m2 [8] [%] | mortality at 20 mg/m2 [9] [%] | mortality at 500 g/ha [6] [%] | mortality at 4 mg/m2 [9] [%]
1 | Cc1nc([C@H](C)NC(=O)c2cc(C(F)(F)F)cc(C(F)(F)F)c2)n(-c2ncc(C(=O)N3CCOCC3)s2)n1 [Example I-4] | 100 | 100 | 90 | 80 to 100 |  |  |  |  |  |  |  |  | 
2 | COC1CCCN(C(=O)c2ccc(-n3ncnc3[C@H](C)NC(=O)c3cc(C(F)(F)F)cc(C(F)(F)F)c3)nc2)C1 (stereo partly shown) [Example I-8] | 100 | 100 | 90 | 80 to 100 | 80 | 90 |  |  |  |  |  |  | 
3 | C[C@H](NC(=O)c1cc(C(F)(F)F)cc(C(F)(F)F)c1)c1ncnn1-c1ccc(C(=O)N2CCCC2)cn1 [Example I-11] | 100 | 100 | 90 | 80 to 100 |  |  | 80 to 100 | 100 |  |  |  |  | 
4 | COC1CN(C(=O)c2ccc(-n3ncnc3[C@H](C)NC(=O)c3cc(C(F)(F)F)cc(C(F)(F)F)c3)nc2)C1 [Example I-15] | 100 | 100 | 90 | 80 to 100 | 100 |  |  |  |  |  |  |  | 
5 | Cc1nc([C@H](C)NC(=O)c2cc(Cl)cc(C(F)(F)F)c2)n(-c2ccc(C(=O)N3CC(C)OC(C)C3)cn2)n1 (stereo partly shown) [Example I-29] | 100 | 83 | 90 | 80 to 100 |  |  | 80 to 100 |  |  |  |  |  | 
6 | C[C@@H]1CN(C(=O)c2ccc(-n3ncnc3[C@H](C)NC(=O)c3cc(Cl)cc(C(F)(F)F)c3)nc2)C[C@H](C)O1 [Example I-31] | 100 | 100 | 100 | 80 to 100 |  |  | 80 to 100 |  |  |  |  |  | 
7 | C[C@H](NC(=O)c1cc(Cl)cc(C(F)(F)F)c1)c1ncnn1-c1ccc(C(=O)N2CCS(=O)(=O)CC2)cn1 [Example I-35] | 100 |  | 90 | 80 to 100 |  | 100 | 80 to 100 |  | 80 to 100 |  |  |  | 
8 | C[C@H](NC(=O)c1cc(Cl)cc(C(F)(F)F)c1)c1ncnn1-c1ccc(C(=O)N2CCSCC2)cn1 [Example I-36] | 100 |  | 100 | 80 to 100 |  | 100 | 80 to 100 |  | 80 to 100 | 80 to 100 |  |  | 
9 | Cc1nc([C@H](C)NC(=O)c2cc(C(F)(F)F)cc(C(F)(F)F)c2)n(-c2ccc(C(=O)N3C[C@@H](C)O[C@@H](C)C3)cn2)n1 [Example I-45] | 100 | 100 | 100 | 80 to 100 | 80 |  |  |  |  |  |  |  | 
10 | C[C@@H]1CN(C(=O)c2ccc(-n3ncnc3[C@H](C)NC(=O)c3cc(C(F)(F)F)cc(C(F)(F)F)c3)nc2)C[C@@H](C)O1 [Example I-46] | 100 | 100 | 90 | 80 to 100 | 100 |  |  |  |  |  |  |  | 
11 | C[C@@H]1CN(C(=O)c2ccc(-n3ncnc3[C@H](C)NC(=O)c3cc(C(F)(F)F)cc(C(F)(F)F)c3)nc2)C[C@H](C)O1 [Example I-50] | 100 | 100 | 90 | 80 to 100 | 100 | 90 | 80 to 100 |  | 80 to 100 | 80 to 100 | 80 to 100 |  | 
12 | C[C@@H]1CN(C(=O)c2ccc(-n3ncnc3[C@H](C)NC(=O)c3cc(C(F)(F)F)cc(C(F)(F)F)c3)nc2)CCO1 [Example I-69] |  | 100 | 90 | 80 to 100 |  |  |  |  | 80 to 100 | 80 to 100 | 80 to 100 |  | 
13 | C[C@H](NC(=O)c1cc(C(F)(F)F)cc(C(F)(F)F)c1)c1ncnn1-c1ccc(C(=O)N2CCS(=O)(=O)CC2)cn1 [Example I-75] |  | 100 | 100 | 80 to 100 |  |  | 80 to 100 |  | 80 to 100 | 80 to 100 | 80 to 100 | 100 | 80 to 100
14 | Cc1nc([C@H](C)NC(=O)c2cc(C(F)(F)F)cc(C(F)(F)F)c2)n(-c2ccc(C(=O)N3CCS(=O)(=O)CC3)cn2)n1 [Example I-76] |  | 100 | 90 | 80 to 100 |  |  | 80 to 100 |  | 80 to 100 | 80 to 100 | 80 to 100 | 100 | 80 to 100
15 | C[C@H](NC(=O)c1cc(C(F)(F)F)cc(C(F)(F)F)c1)c1ncnn1-c1ccc(C(=O)N2C[C@H](C)O[C@@H](C)C2)cn1 [Example I-94] | 100 | 100 | 100 | 80 to 100 | 100 | 90 | 80 to 100 |  |  |  |  |  | 
16 | C[C@@H]1CN(C(=O)c2ccc(-n3ncnc3[C@H](C)NC(=O)c3cc(OC(F)(F)F)cc(C4CC4)c3)nc2)C[C@H](C)O1 [Example I-114] | 100 | 100 | 100 | 80 to 100 | 100 |  |  |  |  |  |  |  | 
